≈ marks a conversion by molar mass, not a printed value. Marks after values point to notes of the source that are not given here. Blank lines part the entries; values can stand above or below the molecule they belong to.
Tests used:
[1] = cited from earlier work
Helicobacter pylori [2] = experiment: In vivo anti-Helicobacter pylori effect, Hp infection model, rapid urease test of pyloric antrum tissue; parameters: species or system BALB/c mice; conditions: 1 time per day for 8 weeks
Experimental: (§1) Take SPF (specific pathogen free) BALB/c mice, equal numbers of male and female, each weight 18˜20 g; divide randomly into three groups, which are normal control group, model control group and triple therapy group. Give the corresponding experimental drugs according to table 1 below. Hp infection model is prepared by using antibiotics and oral gavage of Hp. Day 1, oral gavage 0.5 ml/mouse antibiotics mixture (0.25 ml ampicillin (20 mg/ml), 0.15 ml gentamicin (4 mg/ml), 0.1 ml azithromycin (50 mg/ml)) for three consecutive days for all testing animals, use equal volume of physiological saline for normal control group; starting from day 4, water fasting for 12 hours, oral gavage freshly prepared Hp suspended solution (0.5 ml/mouse/day, concentration 10^8 CFU/ml) for seven consecutive days, use equal volume of physiological saline for normal control group. Starting from day 11, oral gavage testing drug to the testing animals (use equal volume of physiological saline for normal control group), 1 time per day for 8 consecutive weeks. After the last drug administration, fasting for 24 hours. Take serum sample by orbital bleeding and centrifugation. Test for Helicobacter pylori urease antibody (according to the instruction of the instrument); sacrifice mice, tissue from pyloric antrum is first taken for rapid urease test and then observe for 3 minutes, and determine the test results in which strong positive refers to color change at peripheral portion from yellow to red within 1 minute, weak positive refers to color change within 3 minutes, and negative refers to no color change; the remaining stomach tissue is fixed in 10% formalin, then embed and cutting for carbol-fuchsin test, observe the Hp infection condition of the gastric mucosa and determine the condition.

Helicobacter pylori [3] = experiment: In vivo anti-Helicobacter pylori effect, Hp infection model, carbol-fuchsin staining of stomach tissue; parameters: species or system BALB/c mice
Experimental: as §1
Histopathological findings: after staining stomach tissue by carbol-fuchsin method, the Hp become […] in color, have a curved or rod shape, and mainly locate in gastric pit surface and mucus.

Helicobacter pylori [4] = experiment: In vivo anti-Helicobacter pylori effect, Hp infection model, serum urease antibody to Helicobacter pylori; parameters: species or system BALB/c mice; conditions: 1 time per day for 8 weeks
Experimental: as §1

in vivo [5] = conditions: orogastric gavage; for LD50 at 14 days: both, KM, mouse, in vivo, po, Bliss method
Experimental: (§2) 1.3 Testing animal: KM mice, SPF grade, weight 18-22 g, equal numbers of male and female, obtained from Animal Laboratory Center of Guangzhou University of Chinese Medicine, Certificate number: SCXK (Yue) 2008-0020.
(§3) 2.1 Preparation of drug solution: weight a predetermined quantity of patchouli alcohol and put it into a beaker, add suitable amount of peanut oil into the beaker as solvent, mix while heating until the patchouli alcohol is dissolved. Cool under room condition and then add peanut oil to the predetermined amount to obtain the patchouli alcohol solution.
(§4) 2.2 Animal grouping: Take 200 mice, weight between 18˜22 g, divided by weight and randomly divided into 4 groups, namely: orogastric gavage drug group, orogastric gavage control group (equal volume of peanut oil is used), intraperitoneal injection drug group, Intraperitoneal injection control group (equal volume of peanut oil is used), each group includes 50 mice, equal numbers of male and female, raise for one week before experiment for the mice to adapt to the environment, water fasting for 24 hours before experiment.
Set the initial dose at 7.90 g/kg, at a ratio of 1:0.75 divide 5 groups, each group includes 10 mice, equal numbers of male and female, give patchouli alcohol solution to mice once by orogastric gavage according to the dosage at 2.5 g/kg, 3.33 g/kg, 4.44 g/kg, 5.93 g/kg, 7.90 g/kg for each group. Observe consecutively for 14 days, record toxicity reaction and lethal rate every day, and calculate the medium lethal dose (LD50) by Bliss method.

[6] = tested on: Helicobacter pylori (Hp) ATCC43504; experiment: In vitro anti-Helicobacter pylori effect, minimum inhibitory concentration (filter paper on Columbia Blood Agar Plate); format: cell-based; conditions: Helicobacter pylori ATCC43504, 37° C. micro-aerobic, 72 hours
[7] = tested on: Streptococcus pneumoniae (31001); experiment: Selective inhibitory effect, in vitro MIC (broth dilution, turbidity); format: cell-based; conditions: 10% inactivated rabbit serum added, 37° C., 18 hours, read-out: In vitro Minimum Inhibitory Concentration MIC
Excerpt: (§5) Strains: Lactobacillus acidophilus, E. coli, Staphylococcus epidermidis, yeast, thermophilic Bifidobacterium, Staphylococcus aureus (26112), Alpha-Hemolytic Streptococcus (32209), Shigella (32013), Streptococcus pneumoniae (31001), Catarrhal, Corynebacterium diphtheriae (38101), Escherichia coli (44113), Pseudomonas aeruginosa (10211), Salmonella Typhi and Candida albicans (98001), Catarrhal is isolated from specimen collected from the throat in the bacterial laboratory, Candida albicans is donated by Guangzhou Institute for Food and Drug Control, all other strains are provided by Beijing Institute for Food and Drug Control; Trichophyton gypseum (4097), Trichophyton cerebriforme, Trichophyton tonsurans, Microsporum gypseum, Microsporum lanosum, Epidermophyton floccosum (previously known as Trichophyton floccosum) and Trichophyton rubrum are donated by Shanghai Huashan Hospital.
(§6) 3. Culture medium: nutrient broth, 1% dextrose broth, 1% serum broth, Sabouraud agar plate, prepared by conventional preparation method.
(§7) Drug preparation: Use nutrient broth to prepare a series of 14 drug solution in which the content of drug per ml are, 0.1 g, 0.05 g, 0.025 g . . . 1.22×10^−5 g respectively and the total volume of each test tube is 1 ml, and sterile by steam sterilization. […]

in vivo [8] = conditions: for LD50 at 14 days: both, KM, mouse, in vivo, Bliss method
Experimental: as §2, §3, §4
Set the initial dose at 6.32 g/kg, at a ratio of 1:0.75 divide 5 groups, each group includes 10 mice, equal numbers of male and female, give patchouli alcohol solution to each of the mice once by intraperitoneal injection according to the dosage at 2.0 g/kg, 2.67 g/kg, 3.56 g/kg, 4.70 g/kg, 6.32 g/kg for each group. Observe consecutively for 14 days, record toxicity reaction and lethal rate every day, and calculate the medium lethal dose (LD50) by Bliss method.

Microsporum gypseum = experiment: Selective inhibitory effect, in vitro MIC; format: cell-based; conditions: Nannizzia gypsea, read-out: In vitro Minimum Inhibitory Concentration MIC
Excerpt: as §5, §6
(§8) Drug preparation: Use nutrient broth to prepare a series of 14 drug solution in which the content of drug per ml are, 0.1 g, 0.05 g, 0.025 g . . . 1.22×10^−5 g respectively and the total volume of each test tube is 1 ml, and sterile by steam sterilization. For Streptococcus testing, 1% glucose is added to the sterile drug solution, for Streptococcus pneumoniae and Corynebacterium diphtheria, 10% inactivated rabbit serum is added, and for Candida albicans, the drug solution is prepared by using Sabouraud broth.
(§9) Control: for strain control, testing bacteria is added to non-drug culture media; for drug control, no bacteria is added to the drug solution.
(§10) For each drug solution at different concentration and for bacteria control, add 1 ml of 1:2000 testing bacteria solution (8 hours cultured substance) to each tube, incubate bacteria culture at 37° C. for 18 hours and observe the results. For Candida albicans, 24 hours cultured substance is used, and incubate bacteria culture at 28° C. for 48 hours after bacteria is added to the drug solution and then observe the results. Turbidity is the indicator and visually observe each tube to determine if there is any bacterial growth.
(§11) Determine minimum inhibitory concentration (MIC): MIC is the lowest concentration of an antimicrobial that will inhibit the visible growth of a microorganism.

[9] = tested on: Trichophyton cerebriforme; experiment: Selective inhibitory effect, in vitro MIC; format: cell-based; conditions: read-out: In vitro Minimum Inhibitory Concentration MIC
Excerpt: as §5, §6, §8, §9, §10, §11

[10] = tested on: Trichophyton gypseum (4097); experiment: Selective inhibitory effect, in vitro MIC; format: cell-based; conditions: Nannizzia gypsea, read-out: In vitro Minimum Inhibitory Concentration MIC
Excerpt: as §5, §6, §8, §9, §10, §11

Trichophyton rubrum = experiment: Selective inhibitory effect, in vitro MIC; format: cell-based; conditions: read-out: In vitro Minimum Inhibitory Concentration MIC
Excerpt: as §5, §6, §8, §9, §10, §11

Microsporum lanosum = experiment: Selective inhibitory effect, in vitro MIC; format: cell-based; conditions: read-out: In vitro Minimum Inhibitory Concentration MIC
Excerpt: as §5, §6, §8, §9, §10, §11

Trichophyton tonsurans = experiment: Selective inhibitory effect, in vitro MIC; format: cell-based; conditions: read-out: In vitro Minimum Inhibitory Concentration MIC
Excerpt: as §5, §6, §8, §9, §10, §11

Epidermophyton floccosum = experiment: Selective inhibitory effect, in vitro MIC; format: cell-based; conditions: read-out: In vitro Minimum Inhibitory Concentration MIC
Excerpt: as §5, §6, §8, §9, §10, §11

Candida albicans (98001) = experiment: Selective inhibitory effect, in vitro MIC (broth dilution, turbidity); format: cell-based; conditions: 48 h, read-out: In vitro Minimum Inhibitory Concentration MIC
Excerpt: as §5, §6, §7

[11] = High Dose 40 mg/kg oral gavage, 10 animals
[12] = Low Dose 10 mg/kg oral gavage, 11 animals
[13] = Medium Dose 20 mg/kg oral gavage, 11 animals
[14] = 10 mg/kg oral gavage, 11 animals
[15] = 20 mg/kg oral gavage, 11 animals
[16] = 40 mg/kg oral gavage, 10 animals
[17] = mice, intraperitoneal injection
[18] = mice, intraperitoneal injection, pre-test

SMILES: C[C@H]1CC[C@@]2(O)C(C)(C)[C@@H]3CC[C@@]2(C)[C@H]1C3 [Patchouli Alcohol, (1R,4S,4aS,6R,8aS)-4,a,9,9-tetramethyloctahydro-1,6-methanonaphthalen-1(2H)-ol]
- solubility in ethanol and ether and common organic solvent ([1]; ethanol, ether, common organic solvent): soluble
- solubility in water ([1]; water): insoluble
- Strong positive (count) (Helicobacter pylori [2]; [11]): 2 count
- Total Positive Rate (%) (Helicobacter pylori [2]; [11]): 40.00%
- Weak positive (count) (Helicobacter pylori [2]; [11]): 2 count
- Strong positive (count) (Helicobacter pylori [2]; [12]): 0 count
- Total Positive Rate (%) (Helicobacter pylori [2]; [12]): 36.36%
- Weak positive (count) (Helicobacter pylori [2]; [12]): 4 count
- Strong positive (count) (Helicobacter pylori [2]; [13]): 0 count
- Total Positive Rate (%) (Helicobacter pylori [2]; [13]): 27.27* %
- Weak positive (count) (Helicobacter pylori [2]; [13]): 3 count
- animals with blue Hp found in the gastric pit (positive/total) (Helicobacter pylori [3]; high dose group): 6/11
- infection rate (Helicobacter pylori [3]; high dose group): 60%
- animals with blue Hp found in the gastric pit and the mucosal surface (positive/total) (Helicobacter pylori [3]; low dose group): 9/11
- infection rate (Helicobacter pylori [3]; low dose group): 81.81%
- animals with blue Hp found in the gastric pit (positive/total) (Helicobacter pylori [3]; medium dose group): 7/11
- infection rate (Helicobacter pylori [3]; medium dose group): 63.63%
- Positive (Count) (Helicobacter pylori [4]; [14]): 0 Count
- Positive rate (%) (Helicobacter pylori [4]; [14]): 0.00** %
- Positive (Count) (Helicobacter pylori [4]; [15]): 0 Count
- Positive rate (%) (Helicobacter pylori [4]; [15]): 0.00** %
- Positive (Count) (Helicobacter pylori [4]; [16]): 0 Count
- Positive rate (%) (Helicobacter pylori [4]; [16]): 0.00** %
- LD50 at 14 days (in vivo [5]; LD50 95% confidence interval lower limit, mice): 4040 mg/kg
- LD50 at 14 days (in vivo [5]; LD50 95% confidence interval upper limit, mice): 5500 mg/kg
- LD50 at 14 days (in vivo [5]; LD50, mice, peanut oil solution): 4690 mg/kg
- autopsy of the dead mice (in vivo [5]; mice): no obvious abnormality is found in major organs
- time at which death usually occurs (in vivo [5]; mice): 6˜12 hours
- maximum lethal dose (in vivo [5]; mice, pre-test): 7900 mg/kg
- minimum lethal dose (in vivo [5]; mice, pre-test): 2500 mg/kg
- MIC (minimum inhibitory concentration) [6]: 78 µg/mL (≈ 351 µM)
- MIC [7]: 510 µg/mL (≈ 2290 µM)
- LD50 at 14 days (in vivo [8]; LD50, mice, intraperitoneal acute toxicity (sentence prints orogastric gavage), peanut oil solution): 3140 mg/kg
- LD50 at 14 days (in vivo [8]; ip, LD50 95% confidence interval lower limit, mice, intraperitoneal acute toxicity): 2660 mg/kg
- LD50 at 14 days (in vivo [8]; ip, LD50 95% confidence interval upper limit, mice, intraperitoneal acute toxicity): 3680 mg/kg
- autopsy of the dead mice (in vivo [8]; [17]): no obvious abnormality is found in major organs
- time at which death usually occurs (in vivo [8]; [17]): 6˜12 hours
- maximum lethal dose (in vivo [8]; [18]): 6320 mg/kg
- minimum lethal dose (in vivo [8]; [18]): 2000 mg/kg

SMILES: CC(=O)N1CCN(c2ccc(OCC3COC(Cn4ccnc4)(c4ccc(Cl)cc4Cl)O3)cc2)CC1 (stereo not drawn) [Ketoconazole]
- MIC (Microsporum gypseum): 383 µg/mL (≈ 721 µM)
- MIC [9]: 383 µg/mL (≈ 721 µM)
- MIC [10]: 383 µg/mL (≈ 721 µM)
- MIC (Trichophyton rubrum): 24400 µg/mL (≈ 45900 µM)
- MIC (Microsporum lanosum): 24500 µg/mL (≈ 46100 µM)
- MIC (Trichophyton tonsurans): 49000 µg/mL (≈ 92200 µM)
- MIC (Epidermophyton floccosum): 383 µg/mL (≈ 721 µM)
- MIC (Candida albicans (98001)): 12200 µg/mL (≈ 23000 µM)

- MIC (minimum inhibitory concentration) [6]: 120 µg/mL (≈ 328 µM)
SMILES: CC1(C)S[C@@H]2[C@H](NC(=O)[C@H](N)c3ccc(O)cc3)C(=O)N2[C@H]1C(=O)O [Amoxicillin, reference compound]

Reference: patent US20140031434A1, “Use of Patchouli Alcohol in Preparation of Drug Against Helicobacter Pylori” (priority 2011, published 2014)
